# Measured values: ChEMBL document CHEMBL3046900, “Synthesis and Fungitoxic Activity of N-Cinnamoyl--Amino Acid Esters” (2000)
# Tests used:
# Format in all cases: functional
# Athelia rolfsii [1] = assay: Fungitoxic activity against Athelia rolfsii assessed as mycelial growth inhibition at 100 ppm after 3 days; conditions: Agroathelia rolfsii, 72 h; read-out: GI
# Athelia rolfsii [2] = assay: Fungitoxic activity against Athelia rolfsii assessed as mycelial growth inhibition at 10 ppm after 3 days; conditions: Agroathelia rolfsii, 72 h; read-out: GI
# Pythium [3] = assay: Fungitoxic activity against Pythium sp. assessed as mycelial growth inhibition at 10 ppm after 3 days; conditions: 72 h, read-out: GI
# Pythium [4] = assay: Fungitoxic activity against Pythium sp. assessed as mycelial growth inhibition at 100 ppm after 3 days; conditions: 72 h, read-out: GI
SMILES,inhibition of growth at 100 ppm (Athelia rolfsii [1]) [%],inhibition of growth at 10 ppm (Athelia rolfsii [2]) [%],inhibition of growth at 10 ppm (Pythium [3]) [%],inhibition of growth at 100 ppm (Pythium [4]) [%]
CC(C)OC(=O)CNC(=O)/C=C/c1ccc(Cl)cc1Cl,94,38,9,70
CCOC(=O)[C@@H](NC(=O)/C=C/c1ccc(C(C)C)cc1)C(C)C,51,27,10,67
